Measurements taken from patent US12616740B2, “Methods of using a GIP/GLP1 co-agonist for therapy” (ELI LILLY AND COMPANY, priority 2018, dated 2026).

What was measured:
Assay type in all cases: in vivo, human
[1] = system: patients with T2DM who have inadequate glycemic control; experiment: NCT03131687: mean fasting glucose at Week 26; parameters: Mean change from baseline, fasting glucose: unit not given here
Method: Clinical Study (NCT03131687) Supporting Maintenance Dose Embodiments A 6-month (26-week) Phase 2 double-blind clinical study is designed to evaluate the safety, efficacy, and PK/PD of 4 dose levels (1 mg, 5 mg, 10 mg and 15 mg respectively) of tirzepatide once weekly by subcutaneous injection compared with dulaglutide 1.5 mg. once weekly (QW) and placebo QW in patients with T2DM who have inadequate glycemic control with diet and exercise with or without a stable dose of metformin. Tirzepatide dose is up-titrated to the maintenance dose using the following weekly dose increments:
The study also has a 4-week follow up period. In addition to safety and efficacy for treating T2DM, efficacy endpoints include the effect of tirzepatide on HbA1c, FBG, body weight, lipids, and waist circumference compared with placebo and with dulaglutide 1.5 mg. The study also evaluates the effect of tirzepatide on GI tolerability, hypoglycemia, hypersensitivity reactions, and pancreatic safety, as well as the development of treatment-emergent anti-drug antibodies. Model-based dose response analyses are performed to predict potential for significant HbA1c lowering and weight loss in longer studies. Statistical Analyses: Efficacy: The primary efficacy outcome of HbA1c change from baseline to the 26-week endpoint is analyzed using a Bayesian dose-response model. Analyses are performed on the intention to treat population (mITT) analysis set. Supportive analysis of the primary efficacy outcome for the mITT dataset are the model for post-baseline measures (MMRM) with body mass index (BMI) (<30 kg/m^2, ≥30 kg/m^2), metformin use, treatment, visit, and treatment-by-visit interaction as fixed effects, baseline HbA1c as a covariate, and patient as a random effect. The mean weight change from baseline at 12 and 26 weeks, along with the mean change from baseline of HbA1c at 12 weeks, is analyzed using similar dose-response models as the primary analyses. The percentages of patients with ≥5% or ≥10% body weight loss, reaching the HbA1c target of ≤6.5% or ≤7.0% at 26 weeks, or requiring rescue therapy are analyzed using logistic regression with fixed effects of treatment and strata, and baseline as a covariate. The changes from baseline in FBG (fasting blood glucose), SMBG (self-monitored blood glucose) levels, waist circumference, and mean percentage change in lipids from baseline to 12 and 26 weeks are analyzed using a similar MMRM to the one used for the primary analyses. Table Abbreviations: Dula 1.5 mg=dulaglutide 1.5 mg once weekly; LY means tirzepatide, and LY 1 mg=tirzepatide 1 mg once weekly; LY 5 mg=5 mg once weekly; LY 10 mg=escalation dose group tirzepatide once weekly with highest dose of 10 mg; LY 15 mg=escalation dose group of tirzepatide once weekly with highest dose 15 mg; LOCF=last observation-carried-forward; N=number of patients; pbo=placebo; Week 26=mITT on-treatment data at Week 26 excluding data after study drug discontinuation or rescue drug initiation; mITT=modified intent-to-treat; SD=standard deviation. For Table 4, n=number of patients in the population with baseline and post-baseline value at the specified time point. For Table 6, LY10 mg=escalation dose group tirzepatide, once weekly with highest dose of 10 mg; escalation dose: (5 mg weeks 0 and 1), LY15 mg=escalation dose group tirzepatide, once weekly with highest dose of 15 mg; escalation dose: (5 mg weeks 0 and 1; 10 mg weeks 2 to 5); N=number of patients in specified group, m=number of patients who experienced new event during interval, FolUp=follow up, T/Wk=Time range, (week) and %=means percent patients spending at least some time in treatment group who experienced new event during interval. For Table 7, n is the number of patients with events meeting the criteria; N is number of patients in the population; % is percent of patients in treatment group experiencing the event.

[2] = system: patients with type 2 diabetes who have inadequate glycemic control; experiment: Phase 2 clinical study NCT03311724 (12 weeks, escalation schemes): patients reaching HbA1c target
From the text: (§1) This is a 12-week treatment with a 1 week screening (Visit 1) followed by a 1 week lead-in (Visit 2), then 12 weeks of treatment (Visits 3-10, including telephone visits), then followed by 4-week safety follow-up. It is a Phase 2 study designed to examine the efficacy and tolerability of subcutaneously once-weekly tirzepatide compared with placebo in patients with type 2 diabetes who have inadequate glycemic control with diet and exercise alone or with a stable dose of metformin. The study was designed per below and conducted to refine the escalation scheme.

[3] = NCT03311724: weight loss at Week 12
From the text: as §1

[4] = LY1 mg = tirzepatide 1 mg once weekly, N 44
[5] = LY5 mg = tirzepatide 5 mg once weekly, N 48
[6] = LY10 mg = tirzepatide once weekly, highest dose 10 mg, N 44
[7] = LY15 mg = tirzepatide once weekly, highest dose 15 mg, N 35
[8] = LY 12 mg Group 3 (tirzepatide 4 mg × 4, 8 mg × 4, 12 mg × 4 once weekly), LOCF Week 12 (N = 28)
[9] = LY 12 mg Group 3 (tirzepatide 4 mg × 4, 8 mg × 4, 12 mg × 4 once weekly), Week 12 mITT on-treatment (N = 27)
[10] = LY 15 mg-Group 1 (tirzepatide 2.5 mg × 2, 5 mg × 2, 10 mg × 4, 15 mg × 4 once weekly), LOCF Week 12 (N = 28)
[11] = LY 15 mg-Group 1 (tirzepatide 2.5 mg × 2, 5 mg × 2, 10 mg × 4, 15 mg × 4 once weekly), Week 12 mITT on-treatment (N = 23)
[12] = LY 15 mg-Group 2 (tirzepatide 2.5 mg × 4, 7.5 mg × 4, 15 mg × 4 once weekly), LOCF Week 12 (N = 27)
[13] = LY 15 mg-Group 2 (tirzepatide 2.5 mg × 4, 7.5 mg × 4, 15 mg × 4 once weekly), Week 12 mITT on-treatment (N = 26)
[14] = LY 12 mg Group 3 (tirzepatide 4 mg × 4, 8 mg × 4, 12 mg × 4 once weekly), LOCF Week 12 (N = 27)
[15] = LY 15 mg-Group 1 (tirzepatide 2.5 mg × 2, 5 mg × 2, 10 mg × 4, 15 mg × 4 once weekly), LOCF Week 12 (N = 27)

## tirzepatide [LY]
[1]; [4]
  Mean change from baseline, fasting glucose: −6.2
  Mean glucose value (fasting): 154.9 mg/dL
[1]; [5]
  Mean change from baseline, fasting glucose: −46.7
  Mean glucose value (fasting): 126.5 mg/dL
[1]; [6]
  Mean change from baseline, fasting glucose: −66.9
  Mean glucose value (fasting): 104.8 mg/dL
[1]; [7]
  Mean change from baseline, fasting glucose: −56.8
  Mean glucose value (fasting): 110.3 mg/dL
[1]; tirzepatide 5 mg, 10 mg, and 15 mg doses
  fasting serum glucose (in words): significantly decrease fasting serum glucose compared with placebo and dulaglutide 1.5 mg
[2]; 12-mg and 15-mg tirzepatide doses, after 12 weeks of treatment, including an 8-week escalation period
  placebo-adjusted changes from baseline in HbA1c (in words): statistically significant and clinically relevant
[2]; [8]
  % of Patients Reaching HbA1c Target <5.7%: 3.6%
  % of Patients Reaching HbA1c Target <7%: 71.4%
  odds ratio vs. placebo, Patients Reaching HbA1c Target <5.7%: 2.8
  odds ratio vs. placebo, Patients Reaching HbA1c Target <7%: 16.1
[2]; [9]
  % of Patients Reaching HbA1c Target <5.7%: 3.7%
  % of Patients Reaching HbA1c Target <7%: 74.1%
  odds ratio vs. placebo, Patients Reaching HbA1c Target <5.7%: 2.5
  odds ratio vs. placebo, Patients Reaching HbA1c Target <7%: 56.5
[2]; [10]
  % of Patients Reaching HbA1c Target <5.7%: 3.6%
  % of Patients Reaching HbA1c Target <7%: 78.6%
  odds ratio vs. placebo, Patients Reaching HbA1c Target <5.7%: 2.9
  odds ratio vs. placebo, Patients Reaching HbA1c Target <7%: 25.1
[2]; [11]
  % of Patients Reaching HbA1c Target <5.7%: 4.3%
  % of Patients Reaching HbA1c Target <7%: 87.0%
  odds ratio vs. placebo, Patients Reaching HbA1c Target <5.7%: 3.1
  odds ratio vs. placebo, Patients Reaching HbA1c Target <7%: 183.5
[2]; [12]
  % of Patients Reaching HbA1c Target <5.7%: 7.4%
  % of Patients Reaching HbA1c Target <7%: 85.2%
  odds ratio vs. placebo, Patients Reaching HbA1c Target <5.7%: 5.0
  odds ratio vs. placebo, Patients Reaching HbA1c Target <7%: 37.9
[2]; [13]
  % of Patients Reaching HbA1c Target <5.7%: 7.7%
  % of Patients Reaching HbA1c Target <7%: 84.6%
  odds ratio vs. placebo, Patients Reaching HbA1c Target <5.7%: 4.6
  odds ratio vs. placebo, Patients Reaching HbA1c Target <7%: 157.5
[3]; 12 mg and 15 mg tirzepatide doses, at 12 weeks
  body weight vs placebo (in words): significant reductions in body weight compared with placebo
[3]; [14]
  % of Patients Achieving Weight loss ≥5%: 63.0%
  % of Patients Achieving Weight loss ≥10%: 18.5%
  odds ratio vs. placebo, Weight loss ≥5%: 22.7
  odds ratio vs. placebo, Weight loss ≥10%: 10.4
[3]; [9]
  % of Patients Achieving Weight loss ≥5%: 63.0%
  % of Patients Achieving Weight loss ≥10%: 18.5%
  odds ratio vs. placebo, Weight loss ≥5%: 20.7
  odds ratio vs. placebo, Weight loss ≥10%: 9.3
[3]; [15]
  % of Patients Achieving Weight loss ≥5%: 59.3%
  % of Patients Achieving Weight loss ≥10%: 14.8%
  odds ratio vs. placebo, Weight loss ≥5%: 20.5
  odds ratio vs. placebo, Weight loss ≥10%: 8.0
[3]; [11]
  % of Patients Achieving Weight loss ≥5%: 56.5%
  % of Patients Achieving Weight loss ≥10%: 13.0%
  odds ratio vs. placebo, Weight loss ≥5%: 17.1
  odds ratio vs. placebo, Weight loss ≥10%: 6.2
[3]; [12]
  % of Patients Achieving Weight loss ≥5%: 55.6%
  % of Patients Achieving Weight loss ≥10%: 18.5%
  odds ratio vs. placebo, Weight loss ≥5%: 17.6
  odds ratio vs. placebo, Weight loss ≥10%: 10.6
[3]; [13]
  % of Patients Achieving Weight loss ≥5%: 57.7%
  % of Patients Achieving Weight loss ≥10%: 19.2%
  odds ratio vs. placebo, Weight loss ≥5%: 17.4
  odds ratio vs. placebo, Weight loss ≥10%: 9.7
